In PubChem BioAssay (NCI) one finds TGI data, which are given here for seven compounds.

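Compound exposure: 48 hours, 5 concentrations, 96-well plates. TGI: concentration producing complete growth inhibition.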

What all share (experiment): NCI tumour cell line growth inhibition, 48 h
Assay [1] concerns A549 NSCLC.
Assay [2] has as its system ACHN renal.
In assay [3] the test system is BT-549 breast.
In assay [4] the test system is CAKI-1 renal.
The test system of assay [5] is DU-145 prostate.
The subject of assay [6] is HCT-116 colon.
In assay [7] the test system is HCT-15 colon.
Assay [8] relates to HT29 colon.
The subject of assay [9] is M14 melanoma.
Assay [10] concerns MCF7 breast.
Assay [11] has as its system MOLT-4 leukemia.
Assay [12] relates to OVCAR-4 ovarian.
In assay [13] the test system is OVCAR-8 ovarian.
In assay [14] the test system is PC-3 prostate.
For assay [15], the system named is RPMI-8226 leukemia.
Assay [16] has as its system SK-MEL-2 melanoma.
Assay [17] concerns SN12C renal.
Assay [18] has as its system SW-620 colon.
For assay [19], the system named is T-47D breast.
Assay [20] relates to NCI-H23 lung.

Take `COC(=O)Nc1nc2ccc(S(=O)(=O)SC)cc2[nH]1`: the TGI was > 100 µM in assay [1]; 23.9 µM in [2]; 22.7 µM in assay [3]; > 100 µM in [4]; 27.1 µM in [5]; 24.5 µM in assay [6]. Further, the TGI in [7] is 19.4 µM; in assay [8] it was 11.1 µM; in assay [9], 18.4 µM; in assay [10], 27 µM; in assay [11] it was > 100 µM; in assay [12] it was 84.5 µM. The TGI in [13] was 30.6 µM; in assay [14], 16.2 µM; in assay [15], > 100 µM; in [16], 26.9 µM; in assay [17], 37.1 µM; in assay [18], 25.2 µM. In [19], this compound had a TGI of 30.4 µM.

On to `O=C(Nc1nnc(-c2ccc(Cl)cc2)o1)C(SC(=S)N1CCOCC1)c1ccccc1` (configuration not stated), for which the TGI was 81.3 µM in [1]; 83.5 µM in assay [2]; 62.5 µM in assay [3]; > 100 µM in assay [4]; > 100 µM in assay [5]; 26.5 µM in [6]. The TGI in assay [7] was > 100 µM; in assay [8] it was 78.3 µM; in assay [9], > 100 µM; in [10] it was > 100 µM; in [11], > 100 µM; in [20] it was 70.6 µM. Also, the TGI in assay [12] is > 100 µM; in [13], > 100 µM; in assay [14], 55.1 µM; in assay [15], > 100 µM; in [16] it was 44.7 µM; in assay [17], 42.7 µM. In addition, the TGI in [18] and in assay [19] was > 100 µM each time.

`CC(C)OC(=O)/C=C/C(=O)O/C=C/[N+](=O)[O-]`: the TGI is > 100 µM in assay [1]; > 100 µM in assay [2]; 90.4 µM in assay [3]; > 100 µM in assay [4]; > 100 µM in assay [5]; 54.3 µM in assay [6]. Besides, the TGI in assay [7] is > 100 µM; in [8], > 100 µM; in assay [9], > 100 µM; in [10], 54.9 µM; in [11], 36.5 µM; in assay [20], > 100 µM. Also, the TGI is > 100 µM in [12]; > 100 µM in assay [13]; > 100 µM in [14]; 33.9 µM in [15]; 46.4 µM in assay [16]; > 100 µM in [18]. This compound also showed a TGI in assay [19] of 46.4 µM.

Regarding `CCOC(=O)C1C(=O)CC1(C)C` (configuration not stated), the TGI in assay [1], in assay [2], in assay [3], in assay [4], in [5] and in assay [6] was > 10 µM throughout. The TGI in assay [7], in [8], in [9], in assay [10], in [11] and in [20] was > 10 µM throughout. The TGI in assay [12], in assay [13], in [14], in assay [15], in [16] and in assay [17] was > 10 µM each time. The TGI in assay [18] and in assay [19] was > 10 µM each time.

For the compound `COC(=O)c1cc2c(cc1CC(Cc1ccc3c(c1)CCCC3)C(=O)OC)CCCC2` (configuration not stated), the TGI in assay [1], in assay [2], in assay [3], in [4], in [5] and in [6] was > 100 µM throughout. For the same compound, the TGI in [7], in [8], in [9], in [10], in assay [11] and in [20] was > 100 µM throughout. The TGI in assay [12] was 71.1 µM; in [13], > 100 µM; in [14] it was > 100 µM; in assay [15] it was 91.4 µM; in assay [16], > 100 µM; in [17] it was > 100 µM. Further, the TGI in assay [18] and in assay [19] was > 100 µM each time.

As for `Nc1ccc(Cc2c(N)[nH]c(=O)[nH]c2=O)cc1`, the TGI in assay [1], in assay [2], in assay [3], in assay [4], in assay [5] and in assay [6] was > 100 µM in each case. For the same compound, the TGI in assay [7], in assay [8], in assay [9], in [10], in assay [11] and in assay [20] was > 100 µM each time. The TGI in assay [12], in [13], in assay [14], in assay [15], in assay [16] and in assay [17] was > 100 µM in each case. Also, the TGI in assay [18] and in [19] was > 100 µM throughout.

Consider `Clc1ccc(-c2cc3nc4ccccc4nc3o2)cc1`, for which the TGI in assay [1], in assay [2], in assay [3], in assay [4], in [5] and in assay [6] was > 100 µM in each case. The TGI in assay [7], in [8], in [9], in [10], in assay [11] and in [20] was > 100 µM each time. Further, the TGI in assay [12], in assay [13], in assay [14], in assay [15], in assay [16] and in assay [18] was > 100 µM throughout. Besides, the TGI in assay [19] is > 100 µM.
